Calls of active or inactive are those of the source.
Experiments:
[1] = molecular target: T1, Short transient receptor potential channel 4 (Mus musculus, UniProt Q9QUQ5); experiment: mouse TRPC4 channel inhibitors, dose response, cell-based, HEK293 TRPC4/mu-opioid, Fluo-4 calcium (AID 434942); assay type: functional;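 also: potency of inhibitors blocking the TRPC4 calcium response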
T1 sequence (Q9QUQ5 whole entry): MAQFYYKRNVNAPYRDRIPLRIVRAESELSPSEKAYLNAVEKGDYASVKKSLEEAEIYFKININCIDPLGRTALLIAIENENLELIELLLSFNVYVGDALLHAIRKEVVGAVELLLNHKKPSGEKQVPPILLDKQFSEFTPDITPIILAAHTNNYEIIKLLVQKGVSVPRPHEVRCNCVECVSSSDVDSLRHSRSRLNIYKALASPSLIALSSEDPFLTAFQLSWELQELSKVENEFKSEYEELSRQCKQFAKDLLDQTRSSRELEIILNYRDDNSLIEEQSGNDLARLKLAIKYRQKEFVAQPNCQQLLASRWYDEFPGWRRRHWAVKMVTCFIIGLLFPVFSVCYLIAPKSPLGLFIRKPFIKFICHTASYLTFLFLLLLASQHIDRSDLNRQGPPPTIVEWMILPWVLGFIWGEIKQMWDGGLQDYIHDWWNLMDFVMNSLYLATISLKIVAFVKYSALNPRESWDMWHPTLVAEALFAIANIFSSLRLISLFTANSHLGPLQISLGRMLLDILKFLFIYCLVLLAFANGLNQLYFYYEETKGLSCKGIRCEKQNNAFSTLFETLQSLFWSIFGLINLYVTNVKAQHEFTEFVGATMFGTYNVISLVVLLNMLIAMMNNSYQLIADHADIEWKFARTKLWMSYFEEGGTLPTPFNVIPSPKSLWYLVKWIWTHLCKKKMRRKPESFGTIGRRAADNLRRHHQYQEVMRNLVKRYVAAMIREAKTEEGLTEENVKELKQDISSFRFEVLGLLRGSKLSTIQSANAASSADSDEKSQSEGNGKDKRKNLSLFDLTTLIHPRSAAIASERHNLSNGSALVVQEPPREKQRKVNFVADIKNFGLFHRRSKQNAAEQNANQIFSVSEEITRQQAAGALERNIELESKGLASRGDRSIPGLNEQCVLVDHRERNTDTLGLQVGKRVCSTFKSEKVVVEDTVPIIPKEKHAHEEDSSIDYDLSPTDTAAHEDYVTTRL

[2] = molecular target: T2, Fatty acid synthase (Homo sapiens, UniProt P49327); experiment: FAS thioesterase domain inhibitors, dose response, biochemical, endpoint fluorescence intensity, uHTS hits (AID 624327); assay type: functional;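 also: fluorescence from hydrolysis of an O-methyl fluorescein acyl ester substrate by the enzyme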
T2 sequence (P49327 whole entry, the tested form may be a part): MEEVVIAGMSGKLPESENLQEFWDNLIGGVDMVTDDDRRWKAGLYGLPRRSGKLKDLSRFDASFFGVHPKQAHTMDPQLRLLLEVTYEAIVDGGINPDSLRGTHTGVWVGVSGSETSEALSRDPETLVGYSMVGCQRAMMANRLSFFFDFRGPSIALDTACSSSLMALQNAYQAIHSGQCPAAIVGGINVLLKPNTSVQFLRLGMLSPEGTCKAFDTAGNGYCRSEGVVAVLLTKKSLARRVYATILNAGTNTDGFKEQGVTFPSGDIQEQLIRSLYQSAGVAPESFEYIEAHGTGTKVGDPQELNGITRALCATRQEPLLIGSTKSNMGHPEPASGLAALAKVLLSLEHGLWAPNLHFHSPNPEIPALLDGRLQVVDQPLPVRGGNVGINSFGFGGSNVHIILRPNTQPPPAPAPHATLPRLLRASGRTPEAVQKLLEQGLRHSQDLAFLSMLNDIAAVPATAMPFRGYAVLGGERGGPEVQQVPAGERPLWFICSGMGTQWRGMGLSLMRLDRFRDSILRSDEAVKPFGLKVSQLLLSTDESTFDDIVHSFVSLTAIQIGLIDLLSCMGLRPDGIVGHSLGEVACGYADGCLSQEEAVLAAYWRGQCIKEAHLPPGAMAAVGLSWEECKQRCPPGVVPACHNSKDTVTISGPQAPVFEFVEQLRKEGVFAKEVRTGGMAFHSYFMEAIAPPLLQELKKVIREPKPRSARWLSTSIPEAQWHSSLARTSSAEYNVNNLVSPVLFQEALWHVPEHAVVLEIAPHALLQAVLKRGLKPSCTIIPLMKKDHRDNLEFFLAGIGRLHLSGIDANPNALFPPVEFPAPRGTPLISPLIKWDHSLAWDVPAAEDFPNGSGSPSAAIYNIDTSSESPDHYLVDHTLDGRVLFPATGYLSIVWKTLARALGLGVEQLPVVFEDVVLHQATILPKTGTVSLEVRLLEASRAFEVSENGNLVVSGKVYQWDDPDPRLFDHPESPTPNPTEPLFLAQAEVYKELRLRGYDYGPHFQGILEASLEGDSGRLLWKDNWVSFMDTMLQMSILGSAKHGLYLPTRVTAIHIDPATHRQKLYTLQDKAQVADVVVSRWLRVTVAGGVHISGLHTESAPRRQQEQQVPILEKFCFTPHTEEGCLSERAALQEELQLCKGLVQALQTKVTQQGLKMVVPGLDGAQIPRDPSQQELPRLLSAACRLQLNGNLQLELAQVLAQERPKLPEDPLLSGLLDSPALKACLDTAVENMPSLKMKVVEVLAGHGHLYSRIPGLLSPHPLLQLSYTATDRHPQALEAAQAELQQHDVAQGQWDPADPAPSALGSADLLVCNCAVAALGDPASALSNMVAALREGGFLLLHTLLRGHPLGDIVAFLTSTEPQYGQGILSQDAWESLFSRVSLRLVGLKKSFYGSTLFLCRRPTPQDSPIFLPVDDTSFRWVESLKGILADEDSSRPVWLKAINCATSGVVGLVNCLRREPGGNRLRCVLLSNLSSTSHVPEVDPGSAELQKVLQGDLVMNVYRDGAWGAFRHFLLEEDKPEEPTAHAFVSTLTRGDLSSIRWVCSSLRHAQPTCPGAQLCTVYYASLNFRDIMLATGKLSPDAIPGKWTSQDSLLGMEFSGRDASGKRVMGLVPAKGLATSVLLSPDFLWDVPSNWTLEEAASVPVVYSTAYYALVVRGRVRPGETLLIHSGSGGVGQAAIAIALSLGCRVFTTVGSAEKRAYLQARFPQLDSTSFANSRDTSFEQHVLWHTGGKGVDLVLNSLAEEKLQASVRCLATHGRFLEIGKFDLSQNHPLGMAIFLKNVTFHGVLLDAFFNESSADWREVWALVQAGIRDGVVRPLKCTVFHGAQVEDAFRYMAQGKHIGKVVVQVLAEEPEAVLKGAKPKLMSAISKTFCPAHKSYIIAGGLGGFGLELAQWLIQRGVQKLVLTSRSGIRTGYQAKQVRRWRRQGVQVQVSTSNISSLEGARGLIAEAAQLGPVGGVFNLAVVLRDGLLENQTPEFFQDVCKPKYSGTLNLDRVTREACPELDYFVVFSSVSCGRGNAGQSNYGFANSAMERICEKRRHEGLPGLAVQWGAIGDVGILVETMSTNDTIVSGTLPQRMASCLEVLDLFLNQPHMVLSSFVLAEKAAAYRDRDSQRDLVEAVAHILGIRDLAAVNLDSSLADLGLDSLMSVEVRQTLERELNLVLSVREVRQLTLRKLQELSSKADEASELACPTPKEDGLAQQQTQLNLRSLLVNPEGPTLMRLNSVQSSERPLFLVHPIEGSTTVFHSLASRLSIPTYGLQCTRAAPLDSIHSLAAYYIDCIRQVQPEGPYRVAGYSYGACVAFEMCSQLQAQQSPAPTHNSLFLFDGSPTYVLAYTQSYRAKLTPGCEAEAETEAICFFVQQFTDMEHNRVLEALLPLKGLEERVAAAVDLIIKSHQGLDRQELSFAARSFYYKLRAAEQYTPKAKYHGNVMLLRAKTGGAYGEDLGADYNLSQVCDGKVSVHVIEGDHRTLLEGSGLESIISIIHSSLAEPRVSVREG

[3] = molecular target: T2, Fatty acid synthase; experiment: FAS thioesterase domain inhibitors, dose response, biochemical, kinetic fluorescence intensity (AID 624326); assay type: functional;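 also: rate of fluorescence rise from hydrolysis of a fluorogenic O-methyl fluorescein ester substrate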
[4] = molecular target: Voltage-dependent T-type calcium channel subunit alpha-1H (Homo sapiens, UniProt O95180); assay type: functional;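 also: channel activity triggered by adding a high calcium stimulation buffer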
Voltage-dependent T-type calcium channel subunit alpha-1H, sequence (O95180 whole entry): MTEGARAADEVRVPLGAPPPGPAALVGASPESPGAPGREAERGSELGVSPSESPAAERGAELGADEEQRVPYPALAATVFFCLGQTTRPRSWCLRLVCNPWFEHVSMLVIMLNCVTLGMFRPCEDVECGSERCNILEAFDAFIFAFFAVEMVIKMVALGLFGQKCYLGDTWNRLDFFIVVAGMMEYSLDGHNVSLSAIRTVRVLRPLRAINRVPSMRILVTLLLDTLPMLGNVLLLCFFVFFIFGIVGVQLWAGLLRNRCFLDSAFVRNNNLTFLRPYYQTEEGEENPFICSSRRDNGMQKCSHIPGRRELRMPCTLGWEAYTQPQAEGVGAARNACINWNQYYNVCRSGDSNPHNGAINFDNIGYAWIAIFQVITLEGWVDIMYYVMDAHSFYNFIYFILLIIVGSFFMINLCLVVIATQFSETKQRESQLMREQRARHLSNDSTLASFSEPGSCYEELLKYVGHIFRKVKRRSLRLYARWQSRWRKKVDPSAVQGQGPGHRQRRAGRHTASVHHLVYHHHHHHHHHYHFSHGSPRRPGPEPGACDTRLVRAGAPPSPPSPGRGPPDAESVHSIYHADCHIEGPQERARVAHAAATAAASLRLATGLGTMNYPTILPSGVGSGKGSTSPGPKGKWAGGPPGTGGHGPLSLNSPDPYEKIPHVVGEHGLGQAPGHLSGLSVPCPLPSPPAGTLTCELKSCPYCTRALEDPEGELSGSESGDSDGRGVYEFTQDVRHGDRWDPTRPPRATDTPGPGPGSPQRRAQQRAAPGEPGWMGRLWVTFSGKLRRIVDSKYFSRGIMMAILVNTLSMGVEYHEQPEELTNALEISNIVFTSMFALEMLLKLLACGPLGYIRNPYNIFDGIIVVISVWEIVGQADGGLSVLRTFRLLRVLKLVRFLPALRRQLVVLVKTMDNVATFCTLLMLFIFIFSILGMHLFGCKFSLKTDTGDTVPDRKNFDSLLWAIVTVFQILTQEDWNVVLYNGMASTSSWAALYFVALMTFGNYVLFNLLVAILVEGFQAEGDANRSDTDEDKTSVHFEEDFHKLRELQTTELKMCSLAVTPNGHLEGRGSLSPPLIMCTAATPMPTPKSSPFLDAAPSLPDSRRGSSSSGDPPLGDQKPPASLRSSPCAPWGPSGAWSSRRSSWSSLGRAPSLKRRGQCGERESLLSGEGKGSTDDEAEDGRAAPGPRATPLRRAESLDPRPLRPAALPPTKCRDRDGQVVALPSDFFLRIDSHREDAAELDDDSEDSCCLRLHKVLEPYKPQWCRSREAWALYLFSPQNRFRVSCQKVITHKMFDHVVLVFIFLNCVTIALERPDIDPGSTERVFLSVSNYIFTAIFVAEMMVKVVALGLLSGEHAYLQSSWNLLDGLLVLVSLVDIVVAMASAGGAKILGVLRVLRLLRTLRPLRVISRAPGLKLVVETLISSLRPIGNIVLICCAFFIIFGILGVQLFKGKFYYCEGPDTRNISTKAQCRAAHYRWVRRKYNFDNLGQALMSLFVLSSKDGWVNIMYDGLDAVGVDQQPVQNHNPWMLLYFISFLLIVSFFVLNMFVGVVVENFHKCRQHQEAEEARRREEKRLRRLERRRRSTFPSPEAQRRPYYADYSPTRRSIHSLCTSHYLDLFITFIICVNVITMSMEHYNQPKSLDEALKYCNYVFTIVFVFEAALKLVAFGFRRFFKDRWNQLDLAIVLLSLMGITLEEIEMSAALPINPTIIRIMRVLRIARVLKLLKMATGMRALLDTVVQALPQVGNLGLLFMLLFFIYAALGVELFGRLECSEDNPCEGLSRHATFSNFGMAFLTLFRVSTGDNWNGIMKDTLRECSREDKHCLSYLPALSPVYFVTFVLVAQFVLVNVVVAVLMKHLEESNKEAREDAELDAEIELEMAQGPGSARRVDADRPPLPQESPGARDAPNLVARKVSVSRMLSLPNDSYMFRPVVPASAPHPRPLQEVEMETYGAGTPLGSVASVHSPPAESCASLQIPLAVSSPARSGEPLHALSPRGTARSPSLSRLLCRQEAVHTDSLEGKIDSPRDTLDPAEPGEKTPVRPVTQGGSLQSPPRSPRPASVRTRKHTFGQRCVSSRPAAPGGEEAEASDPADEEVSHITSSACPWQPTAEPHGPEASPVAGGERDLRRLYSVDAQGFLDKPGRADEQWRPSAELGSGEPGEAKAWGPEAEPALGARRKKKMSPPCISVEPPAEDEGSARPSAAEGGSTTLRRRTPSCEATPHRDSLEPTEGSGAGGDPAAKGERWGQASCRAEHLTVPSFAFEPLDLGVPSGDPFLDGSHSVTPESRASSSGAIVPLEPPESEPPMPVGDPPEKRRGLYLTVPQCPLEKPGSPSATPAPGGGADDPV

[5] = molecular target: T3, Rac GTPase-activating protein 1 (Homo sapiens, UniProt Q9H0H5); experiment: MgcRacGAP GTPase-activating activity inhibitors, confirmation, biochemical, ADP Hunter fluorescence, primary and confirmatory (AID 624330); assay type: functional
T3 sequence (Q9H0H5 whole entry): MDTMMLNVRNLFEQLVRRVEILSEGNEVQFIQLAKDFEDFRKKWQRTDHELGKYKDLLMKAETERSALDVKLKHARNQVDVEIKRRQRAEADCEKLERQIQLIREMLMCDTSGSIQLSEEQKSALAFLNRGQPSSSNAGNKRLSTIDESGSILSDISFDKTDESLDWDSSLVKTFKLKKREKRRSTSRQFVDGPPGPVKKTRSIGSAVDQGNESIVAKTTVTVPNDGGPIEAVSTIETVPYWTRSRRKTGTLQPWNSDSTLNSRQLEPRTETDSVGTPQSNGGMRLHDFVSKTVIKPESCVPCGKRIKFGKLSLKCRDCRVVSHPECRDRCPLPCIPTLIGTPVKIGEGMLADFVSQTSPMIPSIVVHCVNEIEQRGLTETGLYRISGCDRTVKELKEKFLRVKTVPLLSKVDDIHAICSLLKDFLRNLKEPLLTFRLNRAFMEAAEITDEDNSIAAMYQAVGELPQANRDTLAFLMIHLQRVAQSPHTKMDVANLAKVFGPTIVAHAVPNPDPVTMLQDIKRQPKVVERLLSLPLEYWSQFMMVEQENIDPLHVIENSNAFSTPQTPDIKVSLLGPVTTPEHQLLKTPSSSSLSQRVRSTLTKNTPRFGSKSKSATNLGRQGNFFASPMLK

[6] = molecular target: T1, Short transient receptor potential channel 4; experiment: mouse TRPC4 channel activators, dose response, cell-based, HEK293 TRPC4/mu-opioid, Fluo-4 calcium (AID 434937); assay type: functional
[7] = molecular target: T4, DNA repair and recombination protein RAD54-like (Homo sapiens, UniProt Q92698); experiment: inhibitors of human RAD54 branch migration, confirmation, biochemical, fluorescence, cherry-picked samples, dose series (AID 651657); assay type: functional
T4 sequence (Q92698 whole entry): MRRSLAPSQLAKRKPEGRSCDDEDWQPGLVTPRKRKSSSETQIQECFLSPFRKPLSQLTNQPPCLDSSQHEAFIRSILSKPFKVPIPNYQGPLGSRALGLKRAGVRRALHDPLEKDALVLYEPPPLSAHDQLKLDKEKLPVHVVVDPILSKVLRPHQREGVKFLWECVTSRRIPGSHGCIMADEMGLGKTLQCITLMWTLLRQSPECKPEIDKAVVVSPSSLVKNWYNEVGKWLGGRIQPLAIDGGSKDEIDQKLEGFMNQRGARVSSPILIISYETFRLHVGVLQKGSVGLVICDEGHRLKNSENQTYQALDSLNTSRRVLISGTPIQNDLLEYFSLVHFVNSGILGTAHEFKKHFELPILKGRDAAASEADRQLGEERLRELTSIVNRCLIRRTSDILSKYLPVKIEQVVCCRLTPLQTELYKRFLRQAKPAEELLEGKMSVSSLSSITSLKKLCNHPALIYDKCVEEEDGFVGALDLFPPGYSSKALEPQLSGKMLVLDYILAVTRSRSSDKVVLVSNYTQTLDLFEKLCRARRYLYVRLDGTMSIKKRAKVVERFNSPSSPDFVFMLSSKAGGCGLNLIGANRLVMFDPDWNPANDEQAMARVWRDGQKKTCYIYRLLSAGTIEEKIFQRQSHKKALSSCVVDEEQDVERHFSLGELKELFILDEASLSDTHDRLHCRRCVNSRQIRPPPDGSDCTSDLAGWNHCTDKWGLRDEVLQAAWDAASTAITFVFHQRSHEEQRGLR

[8] = molecular target: T5, DNA repair protein RAD52 homolog (Homo sapiens, UniProt P43351); assay type: functional, biochemical
T5 sequence (P43351 whole entry): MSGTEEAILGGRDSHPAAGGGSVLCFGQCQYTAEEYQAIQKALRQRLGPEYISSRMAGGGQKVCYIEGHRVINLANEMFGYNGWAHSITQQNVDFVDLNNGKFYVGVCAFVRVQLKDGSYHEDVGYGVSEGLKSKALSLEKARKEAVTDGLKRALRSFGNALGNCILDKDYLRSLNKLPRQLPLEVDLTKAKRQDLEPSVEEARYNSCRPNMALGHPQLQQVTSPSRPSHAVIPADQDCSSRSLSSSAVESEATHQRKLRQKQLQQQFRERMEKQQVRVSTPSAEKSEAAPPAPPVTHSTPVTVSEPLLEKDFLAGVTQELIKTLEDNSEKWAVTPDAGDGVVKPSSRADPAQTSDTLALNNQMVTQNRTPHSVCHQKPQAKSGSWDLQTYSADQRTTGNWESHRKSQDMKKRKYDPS

[9] = molecular target: T6, Corticotropin-releasing factor receptor 2/Corticotropin-releasing factor-binding protein (Homo sapiens, UniProt P24387+Q13324); experiment: activators of CRF receptor 2 with binding protein – uHTS hits, confirmation (AID 602473); assay type: functional; conditions: read-out: EC50_Mean
T6 sequence (Q13324 whole entry): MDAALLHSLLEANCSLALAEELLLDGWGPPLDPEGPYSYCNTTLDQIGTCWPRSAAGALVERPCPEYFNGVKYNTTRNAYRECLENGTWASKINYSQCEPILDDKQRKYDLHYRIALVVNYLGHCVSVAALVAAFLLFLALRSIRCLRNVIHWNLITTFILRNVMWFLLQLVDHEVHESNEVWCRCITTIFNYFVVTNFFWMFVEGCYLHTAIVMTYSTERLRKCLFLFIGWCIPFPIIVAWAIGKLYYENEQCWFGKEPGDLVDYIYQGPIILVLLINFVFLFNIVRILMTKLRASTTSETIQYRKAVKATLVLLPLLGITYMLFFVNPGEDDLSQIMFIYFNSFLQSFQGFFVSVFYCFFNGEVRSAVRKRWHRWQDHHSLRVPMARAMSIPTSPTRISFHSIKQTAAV
T6 sequence (P24387 whole entry): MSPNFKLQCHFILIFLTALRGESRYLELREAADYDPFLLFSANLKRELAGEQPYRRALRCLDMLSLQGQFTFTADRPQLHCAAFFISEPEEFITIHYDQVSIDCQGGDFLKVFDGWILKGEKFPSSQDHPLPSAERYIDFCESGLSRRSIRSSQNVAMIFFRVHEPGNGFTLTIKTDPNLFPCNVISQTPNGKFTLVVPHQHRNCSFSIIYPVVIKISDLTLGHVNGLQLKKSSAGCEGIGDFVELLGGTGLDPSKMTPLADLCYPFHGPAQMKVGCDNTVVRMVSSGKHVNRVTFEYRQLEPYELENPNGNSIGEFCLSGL

[10] = molecular target: Cytochrome P450 2C19 (Homo sapiens, UniProt P33261); experiment: Cytochrome panel assay with activity outcomes. Panel member name: p450-cyp2c19 Compounds with AC50 equal or less than 10 uM are considered active; assay type: functional; conditions: read-out: AC50
[11] = molecular target: Cytochrome P450 2C9 (Homo sapiens, UniProt P11712)
[12] = cytotoxicity toward NIH3T3 fibroblasts, dose response, counter-screen, cell-based, ATP luminescence, mouse fibroblasts (AID 2010); assay type: functional;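 also: cells exposed to compound for about 90 hours before reading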
[13] = inhibitors of intracellular T. cruzi replication, confirmation, NIH3T3 host cells, beta-gal luminescence (AID 2044); assay type: functional, cell-based;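 also: intracellular parasites grown in NIH/3T3 mouse fibroblasts as host cells; luminescent beta-galactosidase reporter signal from transgenic T. cruzi replicating inside host cells; inhibitors lower the luminescence signal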
[14] = system: Vero; experiment: cells; assay type: functional; conditions: Chlorocebus sabaeus

## O=C(NC1CCCCC1)N1CCN(C(c2ccccc2)c2ccccc2)CC1
[1]
  EC50: 1.5 µM (active)

## COc1ccc(C(=O)NC(C)CCc2ccccc2)cc1[N+](=O)[O-] (centres undefined)
[2]
  IC50: 13.4 µM (active)
[3]
  IC50: 9.58 µM (active)

## CCCN(c1nc(C)cc(OC)n1)S(=O)(=O)c1ccccc1
[1]
  EC50: 2.11 µM (active)

## CCCCN(C)C(=O)C1CCN(Cc2ccc(OCc3ccccc3)cc2)CC1
[4]
  EC50: 7.3 µM (active)
[5]
  IC50: 204 µM (active)

## COCCn1nnnc1C(c1cccs1)N1CCN(c2cccc(C(F)(F)F)c2)CC1 (centres undefined)
[4]
  EC50: 97.8 µM (active)

## CCn1c(N2CCN(C(S)=NCCc3ccccc3)CC2)nc2ccccc21
[6]
  EC50: 0.376 µM (active)

## CCCN1CCN(C(S)=Nc2ccc3nc(N4CCN(CC)CC4)cc(C)c3c2)CC1
[7]
  AC50: 82.8 µM (active)
[8]
  AC50: 15.3 µM (active)

## CCC(SC1=N/C(=C/c2ccccc2OC)C(=O)N1c1ccccc1)C(=O)Nc1cc(C)on1 (centres undefined)
[4]
  EC50: 4.23 µM (active)

## COc1ccc(/C=C(/NC(=O)c2ccc([N+](=O)[O-])cc2)C(=O)NCCCN(C)C)cc1
[2]
  IC50: 5.03 µM (active)
[3]
  IC50: 3.13 µM (active)

## O=C1c2ccccc2S(=O)(=O)c2cc(C(=O)N(c3ccccn3)c3ccccn3)ccc21
[6]
  EC50: 1.88 µM (active)
[9]
  EC50: 4.15 µM (active)

## COC(=O)[C@@]1(Cc2ccc(F)cc2)[C@H]2c3cc(C(=O)N(C)C)n(CCc4ccccn4)c3C[C@H]2CN1C(=O)c1ccccc1
[6]
  EC50: 5.96 µM (active)
[10]
  AC50: 39.8 µM (inconclusive)
[11]
  AC50: 10 µM (inconclusive)

## CN(C)CCN(C(=O)CN1C(=O)c2ccccc2C1=O)c1nc2cc3c(cc2s1)OCO3
[7]
  AC50: 41.5 µM (active)
[8]
  AC50: 23.9 µM (active)

## Cc1ccccc1Cn1nc(C)c(NC(=O)c2noc3c2CCc2ccccc2-3)c1C
[4]
  EC50: 1.92 µM (active)

## CN(C)CCCN(C(=O)c1ccc(C(=O)c2ccccc2)cc1)c1nc2ccc(F)cc2s1
[12]
  EC50: > 60 µM (not active)
[6]
  EC50: 5.96 µM (active)
[13]
  EC50: 0.104 µM (active)

## Cc1c([N+](=O)[O-])cc(C(=O)Nc2ccc(Cc3ccncc3)cc2)cc1[N+](=O)[O-]
[12]
  EC50: > 60 µM (not active)
[2]
  IC50: 7.27 µM (active)
[13]
  EC50: 0.799 µM (active)
[3]
  IC50: 8.08 µM (active)

## CCOc1ccccc1CN1CCNC(=O)C1CC(=O)NCCc1ccccn1 (centres undefined)
[6]
  EC50: 5.96 µM (active)

## COc1ccc(-c2noc(CSc3nnc(Cc4ccccc4)n3-c3cccc(C)c3)n2)cc1OC
[4]
  EC50: 4.35 µM (active)

## Cc1nn(Cc2ccc(Cl)c(Cl)c2)c(C)c1NC(=O)c1cn(-c2ccccc2)nc1-c1ccccc1
[12]
  EC50: > 60 µM (not active)
[13]
  EC50: 1.99 µM (active)
[4]
  EC50: 5.29 µM (active)

## COc1ccc2cc3cc(C(=O)NCCCN4CCC(C)CC4)oc3nc2c1
[7]
  AC50: 29.2 µM (active)

## COc1ccc(C(CNC(=O)Cc2cccs2)N(C)C)cc1 (centres undefined)
[6]
  EC50: 0.237 µM (active)

## CCN(CC)CC(O)c1ccc2ccc3ccc(O)cc3c2c1 (centres undefined)
[7]
  AC50: 23.3 µM (active)
[14]
  CC50: > 25 µM (active)
[8]
  AC50: 7.92 µM (active)

## CCOc1ccc(NC(=O)c2cc([N+](=O)[O-])ccc2N2CCOCC2)cc1
[2]
  IC50: 13.4 µM (active)
[3]
  IC50: 13.7 µM (active)

## COc1ccc2[nH]c3c(c2c1)CCN1C(=O)C(CC(=O)NCc2ccco2)C[C@H](C(=O)N2CCOCC2)[C@@]31CCC1CCCC1 (some centres undefined)
[2]
  IC50: 5.98 µM (active)
[3]
  IC50: 4.73 µM (active)

## COc1ccc(Cl)cc1-c1cc(C(=O)NCc2cccc(Cl)c2)[nH]n1
[2]
  IC50: 12.4 µM (active)
[3]
  IC50: 5.46 µM (active)
